Assays:
Assay type in all cases: cell-based
[1] = molecular target: T1, GHRHR R357A (Homo sapiens, UniProt Q02643, R357A); test: cAMP accumulation, R357A; details: mean ± SEM, n ≥ 3
T1 construct: GHRHR(23-423)-; HA signal peptide (replaces native signal M1-G22) (N); expressed in transfected cells; host or cells: HEK 293 T
Description: (§1) Fig. 2 Molecular recognition of GHRH by GHRHR and comparison of that with LA-PTH–PTH1R and GLP-1–GLP-1R. a Detailed interaction between GHRH and the TMD pocket of GHRHR with hydrogen bonds shown as dotted lines. b, c Pairwise comparison of GHRH bound to GHRHR with GLP-1 and LA-PTH in complex with their corresponding receptors, showing the relative positions of peptide ligands. Lime green, GHRHR; blue, GHRH; red, PTH1R and LA-PTH; purple, GLP-1R and GLP-1. d–f The effects of mutation in the ligand-binding pocket on cAMP accumulation. cAMP levels were measured in wild-type (WT) receptor and alanine mutants in ECL1, 2, and 3 (d), TM1, 2, and 3 (e), and TM5, 6, and 7 (f). cAMP signals were normalized to the maximum response of WT and concentration–response curves were analyzed using a three-parameter logistic equation. Data shown are means ± S.E.M. of at least three independent experiments (n = 3–5), conducted in triplicate. Source data are provided as a Source data file.
(§2) GHRH-stimulated cAMP accumulation was measured by a LANCE Ultra cAMP kit (PerkinElmer). […] After 1 h RT incubation, TR-FRET signals (excitation: 320 nm, emission: 615 and 665 nm) were measured by an EnVision (PerkinElmer).

[2] = molecular target: T2, GHRHR D350A (Homo sapiens, UniProt Q02643, D350A); test: cAMP accumulation, D350A; details: mean ± SEM, n ≥ 3
T2 construct: GHRHR(23-423)-; HA signal peptide (replaces native signal M1-G22) (N); expressed in transfected cells; host or cells: HEK 293 T
T2 sequence (Q02643 23-423 D350A): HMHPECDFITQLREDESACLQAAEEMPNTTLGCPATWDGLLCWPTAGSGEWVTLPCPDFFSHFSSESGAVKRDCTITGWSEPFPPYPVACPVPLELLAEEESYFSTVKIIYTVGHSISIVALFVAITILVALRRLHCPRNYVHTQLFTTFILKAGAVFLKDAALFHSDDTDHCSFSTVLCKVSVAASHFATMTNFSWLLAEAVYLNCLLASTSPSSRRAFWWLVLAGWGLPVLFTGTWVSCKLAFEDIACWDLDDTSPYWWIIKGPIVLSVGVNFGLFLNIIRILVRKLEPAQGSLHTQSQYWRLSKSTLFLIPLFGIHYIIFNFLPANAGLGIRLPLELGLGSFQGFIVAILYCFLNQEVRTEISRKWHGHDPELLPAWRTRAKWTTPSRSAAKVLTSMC
Description: as §1, §2

[3] = molecular target: T3, GHRHR wild-type (HA-Flag-GHRHR) (Homo sapiens, UniProt Q02643); test: GHRH-stimulated cAMP accumulation (LANCE), HEK 293T; details: LANCE Ultra cAMP TR-FRET, 30 min RT, mean ± SEM, n ≥ 3
T3 construct: GHRHR(23-423) (WT); HA signal peptide (replaces native signal M1-G22) (N); expressed in transfected cells; host or cells: HEK 293T, pcDNA3.1, transient
T3 sequence (Q02643 23-423): as the sequence (Q02643 23-423 D350A) above, with A328D counted along it
Description: as §1
GHRH-stimulated cAMP accumulation was measured by a LANCE Ultra cAMP kit (PerkinElmer). […] After 1 h RT incubation, TR-FRET signals (excitation: 320 nm, emission: 615 and 665 nm) were measured by an EnVision (PerkinElmer). […]
245 to determine pEC50 and Emax values. Emax values for mutants are expressed as a
246 percentage of the wild-type (WT). Cell surface expression was assessed by FACS to […]

[4] = molecular target: T4, GHRHR W282A (Homo sapiens, UniProt Q02643, W282A); test: cAMP accumulation, W282A; details: mean ± SEM, n ≥ 3
T4 construct: GHRHR(23-423)-; HA signal peptide (replaces native signal M1-G22) (N); expressed in transfected cells; host or cells: HEK 293T, pcDNA3.1, transient
T4 sequence (Q02643 23-423 W282A): as the sequence (Q02643 23-423 D350A) above, with W260A, A328D counted along it
Description: as §1, §2

[5] = molecular target: T5, GHRHR T213A (Homo sapiens, UniProt Q02643, T213A); test: cAMP accumulation, T213A; details: mean ± SEM, n ≥ 3
T5 construct: GHRHR(23-423)-; HA signal peptide (replaces native signal M1-G22) (N); expressed in transfected cells; host or cells: HEK 293T, pcDNA3.1, transient
T5 sequence (Q02643 23-423 T213A): as the sequence (Q02643 23-423 D350A) above, with T191A, A328D counted along it
Description: as §1, §2

[6] = molecular target: T6, GHRHR L354A (Homo sapiens, UniProt Q02643, L354A); test: cAMP accumulation, L354A; details: mean ± SEM, n ≥ 3
T6 construct: GHRHR(23-423)-; HA signal peptide (replaces native signal M1-G22) (N); expressed in transfected cells; host or cells: HEK 293 T
T6 sequence (Q02643 23-423 L354A): as the sequence (Q02643 23-423 D350A) above, with A328D, L332A counted along it
Description: as §1, §2

[7] = molecular target: T7, GHRHR D276A (Homo sapiens, UniProt Q02643, D276A); test: cAMP accumulation, D276A; details: mean ± SEM, n ≥ 3
T7 construct: GHRHR(23-423)-; HA signal peptide (replaces native signal M1-G22) (N); expressed in transfected cells; host or cells: HEK 293T, pcDNA3.1, transient
T7 sequence (Q02643 23-423 D276A): as the sequence (Q02643 23-423 D350A) above, with D254A, A328D counted along it
Description: as §1, §2

[8] = molecular target: T8, GHRHR V179A (Homo sapiens, UniProt Q02643, V179A); test: cAMP accumulation, V179A; details: mean ± SEM, n ≥ 3
T8 construct: GHRHR(23-423)-; HA signal peptide (replaces native signal M1-G22) (N); expressed in transfected cells; host or cells: HEK 293T, pcDNA3.1, transient
T8 sequence (Q02643 23-423 V179A): as the sequence (Q02643 23-423 D350A) above, with V157A, A328D counted along it
Description: as §1, §2

[9] = molecular target: T9, GHRHR H210A (Homo sapiens, UniProt Q02643, H210A); test: cAMP accumulation, H210A; details: mean ± SEM, n ≥ 3
T9 construct: GHRHR(23-423)-; HA signal peptide (replaces native signal M1-G22) (N); expressed in transfected cells; host or cells: HEK 293T, pcDNA3.1, transient
T9 sequence (Q02643 23-423 H210A): as the sequence (Q02643 23-423 D350A) above, with H188A, A328D counted along it
Description: as §1, §2

[10] = molecular target: T10, GHRHR K182A (Homo sapiens, UniProt Q02643, K182A); test: cAMP accumulation, K182A; details: mean ± SEM, n ≥ 3
T10 construct: GHRHR(23-423)-; HA signal peptide (replaces native signal M1-G22) (N); expressed in transfected cells; host or cells: HEK 293T, pcDNA3.1, transient
T10 sequence (Q02643 23-423 K182A): as the sequence (Q02643 23-423 D350A) above, with K160A, A328D counted along it
Description: as §1, §2

[11] = molecular target: T11, GHRHR I289A (Homo sapiens, UniProt Q02643, I289A); test: cAMP accumulation, I289A; details: mean ± SEM, n ≥ 3
T11 construct: GHRHR(23-423)-; HA signal peptide (replaces native signal M1-G22) (N); expressed in transfected cells; host or cells: HEK 293T, pcDNA3.1, transient
T11 sequence (Q02643 23-423 I289A): as the sequence (Q02643 23-423 D350A) above, with I267A, A328D counted along it
Description: as §1, §2

[12] = molecular target: T12, GHRHR H194A (Homo sapiens, UniProt Q02643, H194A); test: cAMP accumulation, H194A; details: mean ± SEM, n ≥ 3
T12 construct: GHRHR(23-423)-; HA signal peptide (replaces native signal M1-G22) (N); expressed in transfected cells; host or cells: HEK 293T, pcDNA3.1, transient
T12 sequence (Q02643 23-423 H194A): as the sequence (Q02643 23-423 D350A) above, with H172A, A328D counted along it
Description: as §1, §2

T1 sequence (Q02643 23-423 R357A): as the sequence (Q02643 23-423 D350A) above, with A328D, R335A counted along it

## CC[C@H](C)[C@H](NC(=O)[C@H](C)NC(=O)[C@H](CC(=O)O)NC(=O)[C@H](C)NC(=O)[C@@H](N)Cc1ccc(O)cc1)C(=O)N[C@@H](Cc1ccccc1)C(=O)N[C@H](C(=O)N[C@@H](CC(N)=O)C(=O)N[C@@H](CO)C(=O)N[C@@H](Cc1ccc(O)cc1)C(=O)N[C@@H](CCCNC(=N)N)C(=O)N[C@@H](CCCCN)C(=O)N[C@H](C(=O)N[C@@H](CC(C)C)C(=O)NCC(=O)N[C@@H](CCC(N)=O)C(=O)N[C@@H](CC(C)C)C(=O)N[C@@H](CO)C(=O)N[C@@H](C)C(=O)N[C@@H](CCCNC(=N)N)C(=O)N[C@@H](CCCCN)C(=O)N[C@@H](CC(C)C)C(=O)N[C@@H](CC(C)C)C(=O)N[C@@H](CCC(N)=O)C(=O)N[C@@H](CC(=O)O)C(=O)N[C@H](C(=O)N[C@@H](CCSC)C(=O)N[C@@H](CO)C(=O)N[C@@H](CCCNC(=N)N)C(=O)N[C@@H](CCC(N)=O)C(=O)N[C@@H](CCC(N)=O)C(=O)NCC(=O)N[C@@H](CCC(=O)O)C(=O)N[C@@H](CO)C(=O)N[C@@H](CC(N)=O)C(=O)N[C@@H](CCC(N)=O)C(=O)N[C@@H](CCC(=O)O)C(=O)N[C@@H](CCCNC(=N)N)C(=O)NCC(=O)N[C@@H](C)C(=O)N[C@@H](CCCNC(=N)N)C(=O)N[C@@H](C)C(=O)N[C@@H](CCCNC(=N)N)C(=O)N[C@@H](CC(C)C)C(N)=O)[C@@H](C)CC)C(C)C)[C@@H](C)O [GHRH, Growth hormone-releasing hormone]
[1]
  EC50: 135 nM
  Emax: 60.05±5.19 % WT
[2]
  EC50: 148 nM
  Emax: 47.38±8.48 % WT
[3]; 0.5 mM IBMX
  EC50: 0.182 nM
[3]
  Emax: 100 % WT
[4]
  EC50: 13.2 nM
  Emax: 101.88±5.62 % WT
[5]
  EC50: 0.447 nM
  Emax: 91.48±4.55 % WT
[6]
  EC50: 0.182 nM
  Emax: 98.79±1.84 % WT
[7]
  EC50: 0.331 nM
  Emax: 102.04±0.51 % WT
[8]
  EC50: 0.288 nM
  Emax: 101.24±3.06 % WT
[9]
  EC50: 1 nM
  Emax: 99.66±1.10 % WT
[10]
  EC50: 39.8 nM
  Emax: 100.02±1.40 % WT
[11]
  EC50: 9.77 nM
  Emax: 93.36±2.36 % WT
[12]
  EC50: 0.251 nM
  Emax: 98.01±1.25 % WT
